Earlier results on one compound are cited in patent publication US20230158084A1, “PROBIOTICS, METABOLITES, AND USES THEREOF” (California Institute of Technology, priority 2018, published 2023).

The structures appear in SMILES notation.

For the data set the following is noted: adult mice; cited from earlier work.

For the compound `C1=NCCCC1` [1-piperideine], the “conversion to 5AV in the brain” value is “rapidly converted to 5AV” and the “entry into the brain” value is on record as “can enter the brain”.
